Measured values as given in ChEMBL document CHEMBL1146607, “Synthesis and antifungal activity of 2,5-disubstituted-6-arylamino-4,7-benzimidazolediones” (2003).
Values after ≈ are worked out from the molar mass of the structure shown.

Tests used:
Type in all cases: functional
Aspergillus niger = assay: In vitro antifungal activity against Aspergillus niger KCTC 1231 was measured
Pichia kudriavzevii = assay: In vitro antifungal activity against Candida krusei ATCC 749 was measured
Candida albicans = assay: In vitro antifungal activity against Candida albicans ATCC 10231 was measured
Candida tropicalis = assay: In vitro antifungal activity against Candida tropicalis ATCC 28775 was measured

Q: How did the MIC (Aspergillus niger) turn out when `COc1ccc(NC2=C(Cl)C(=O)c3nc(-c4ccccn4)[nH]c3C2=O)cc1` was run?
A: 25 µg/mL (≈ 65.7 µM)

Q: What about the MIC (Pichia kudriavzevii) of the same compound?
A: 12.5 µg/mL (≈ 32.8 µM)

Q: And the MIC (Candida albicans)?
A: 12.5 µg/mL (≈ 32.8 µM)

Q: And the MIC (Candida tropicalis)?
A: 1.6 µg/mL (≈ 4.2 µM)

Q: How did the MIC (Aspergillus niger) turn out when `O=C1C(Cl)=C(Nc2ccc(F)cc2)C(=O)c2[nH]c(-c3ccncc3)nc21` was run?
A: 100 µg/mL (≈ 271 µM)

Q: And the MIC (Pichia kudriavzevii)?
A: > 100 µg/mL

Q: And the MIC (Candida albicans)?
A: > 100 µg/mL

Q: And the MIC (Candida tropicalis)?
A: 6.3 µg/mL (≈ 17.1 µM)

Q: With `COc1ccc(NC2=C(Cl)C(=O)c3nc(-c4cccnc4)[nH]c3C2=O)cc1` as the compound, how does the MIC (Aspergillus niger) read?
A: 100 µg/mL (≈ 263 µM)

Q: What about the MIC (Pichia kudriavzevii) of the same compound?
A: > 100 µg/mL

Q: And the MIC (Candida albicans)?
A: > 100 µg/mL

Q: What about the MIC (Candida tropicalis) of the same compound?
A: 50 µg/mL (≈ 131 µM)

Q: For `O=C1C(Cl)=C(Nc2ccc(F)cc2)C(=O)c2[nH]c(-c3ccccn3)nc21`, which MIC (Aspergillus niger) is on record?
A: 25 µg/mL (≈ 67.8 µM)

Q: What about the MIC (Pichia kudriavzevii) of the same compound?
A: 6.3 µg/mL (≈ 17.1 µM)

Q: What about the MIC (Candida albicans) of the same compound?
A: 12.5 µg/mL (≈ 33.9 µM)

Q: And the MIC (Candida tropicalis)?
A: 3.2 µg/mL (≈ 8.68 µM)

Q: Which MIC (Aspergillus niger) does the source give for `O=C1C(Cl)=C(Cl)C(=O)c2[nH]c(-c3ccccn3)nc21` here?
A: 100 µg/mL (≈ 340 µM)

Q: And the MIC (Pichia kudriavzevii)?
A: > 100 µg/mL

Q: And the MIC (Candida albicans)?
A: > 100 µg/mL

Q: What about the MIC (Candida tropicalis) of the same compound?
A: 25 µg/mL (≈ 85 µM)

Q: Which results are given for `O=C1C=C(Nc2ccc(Br)cc2)C(=O)c2[nH]c(-c3ccccn3)nc21`?
A: MIC (Aspergillus niger): 1.6 µg/mL (≈ 4.05 µM); MIC (Pichia kudriavzevii): 1.6 µg/mL (≈ 4.05 µM); MIC (Candida albicans): 50 µg/mL (≈ 127 µM); MIC (Candida tropicalis): 0.8 µg/mL (≈ 2.02 µM)

Q: With `O=C1C=C(Nc2ccc(Cl)cc2)C(=O)c2[nH]c(-c3ccccn3)nc21` as the compound, how does the MIC (Aspergillus niger) read?
A: 3.2 µg/mL (≈ 9.12 µM)

Q: What about the MIC (Pichia kudriavzevii) of the same compound?
A: 1.6 µg/mL (≈ 4.56 µM)

Q: And the MIC (Candida albicans)?
A: 50 µg/mL (≈ 143 µM)

Q: And the MIC (Candida tropicalis)?
A: 0.8 µg/mL (≈ 2.28 µM)

Q: How did the MIC (Aspergillus niger) turn out when `O=C1C=CC(=O)c2[nH]c(-c3ccccn3)nc21` was run?
A: 100 µg/mL (≈ 444 µM)

Q: And the MIC (Pichia kudriavzevii)?
A: > 100 µg/mL

Q: What about the MIC (Candida albicans) of the same compound?
A: > 100 µg/mL

Q: What about the MIC (Candida tropicalis) of the same compound?
A: 100 µg/mL (≈ 444 µM)

Q: Which results are given for `O=C1C=C(Nc2ccc(I)cc2)C(=O)c2[nH]c(-c3ccccn3)nc21`?
A: MIC (Aspergillus niger): 100 µg/mL (≈ 226 µM); MIC (Pichia kudriavzevii): 1.6 µg/mL (≈ 3.62 µM); MIC (Candida albicans): 50 µg/mL (≈ 113 µM); MIC (Candida tropicalis): 0.8 µg/mL (≈ 1.81 µM)

Q: How did the MIC (Aspergillus niger) turn out when `Cc1ccc(NC2=C(Cl)C(=O)c3nc(-c4ccccn4)[nH]c3C2=O)cc1` was run?
A: 25 µg/mL (≈ 68.5 µM)

Q: What about the MIC (Pichia kudriavzevii) of the same compound?
A: 3.2 µg/mL (≈ 8.77 µM)

Q: What about the MIC (Candida albicans) of the same compound?
A: 12.5 µg/mL (≈ 34.3 µM)

Q: And the MIC (Candida tropicalis)?
A: 1.6 µg/mL (≈ 4.39 µM)

Q: For `COc1ccc(NC2=C(Cl)C(=O)c3nc(-c4ccncc4)[nH]c3C2=O)cc1`, which MIC (Aspergillus niger) is on record?
A: 100 µg/mL (≈ 263 µM)

Q: And the MIC (Pichia kudriavzevii)?
A: > 100 µg/mL

Q: And the MIC (Candida albicans)?
A: > 100 µg/mL

Q: And the MIC (Candida tropicalis)?
A: 25 µg/mL (≈ 65.7 µM)

Q: Which results are given for `O=C1C(Cl)=C(Nc2ccc(F)cc2)C(=O)c2[nH]c(-c3cccnc3)nc21`?
A: MIC (Aspergillus niger): 100 µg/mL (≈ 271 µM); MIC (Pichia kudriavzevii): > 100 µg/mL; MIC (Candida albicans): > 100 µg/mL; MIC (Candida tropicalis): 12.5 µg/mL (≈ 33.9 µM)

Q: With `CCOc1ccc(NC2=C(Cl)C(=O)c3[nH]c(-c4ccccn4)nc3C2=O)cc1` as the compound, how does the MIC (Aspergillus niger) read?
A: 25 µg/mL (≈ 63.3 µM)

Q: What about the MIC (Pichia kudriavzevii) of the same compound?
A: 12.5 µg/mL (≈ 31.7 µM)

Q: What about the MIC (Candida albicans) of the same compound?
A: 12.5 µg/mL (≈ 31.7 µM)

Q: What about the MIC (Candida tropicalis) of the same compound?
A: 3.2 µg/mL (≈ 8.11 µM)

Q: How did the MIC (Aspergillus niger) turn out when `O=C1C(Cl)=C(Nc2ccc(Br)cc2)C(=O)c2[nH]c(-c3ccncc3)nc21` was run?
A: 100 µg/mL (≈ 233 µM)

Q: What about the MIC (Pichia kudriavzevii) of the same compound?
A: > 100 µg/mL

Q: And the MIC (Candida albicans)?
A: > 100 µg/mL

Q: And the MIC (Candida tropicalis)?
A: 12.5 µg/mL (≈ 29.1 µM)

Q: Which results are given for `O=C1C(Cl)=C(Nc2ccc(Br)cc2)C(=O)c2[nH]c(-c3cccnc3)nc21`?
A: MIC (Aspergillus niger): 100 µg/mL (≈ 233 µM); MIC (Pichia kudriavzevii): > 100 µg/mL; MIC (Candida albicans): > 100 µg/mL; MIC (Candida tropicalis): 50 µg/mL (≈ 116 µM)

Q: For `O=C1C(Cl)=C(Nc2ccc(Cl)cc2)C(=O)c2[nH]c(-c3cccnc3)nc21`, which MIC (Aspergillus niger) is on record?
A: 100 µg/mL (≈ 260 µM)

Q: What about the MIC (Pichia kudriavzevii) of the same compound?
A: > 100 µg/mL

Q: What about the MIC (Candida albicans) of the same compound?
A: > 100 µg/mL

Q: What about the MIC (Candida tropicalis) of the same compound?
A: 25 µg/mL (≈ 64.9 µM)

Q: Which MIC (Aspergillus niger) does the source give for `O=C1C(Cl)=C(Nc2ccc(Br)cc2)C(=O)c2[nH]c(-c3ccccn3)nc21` here?
A: 6.3 µg/mL (≈ 14.7 µM)

Q: What about the MIC (Pichia kudriavzevii) of the same compound?
A: 6.3 µg/mL (≈ 14.7 µM)

Q: What about the MIC (Candida albicans) of the same compound?
A: 3.2 µg/mL (≈ 7.45 µM)

Q: What about the MIC (Candida tropicalis) of the same compound?
A: 1.6 µg/mL (≈ 3.72 µM)

Q: Which results are given for `Cc1ccc(NC2=CC(=O)c3[nH]c(-c4ccccn4)nc3C2=O)cc1`?
A: MIC (Aspergillus niger): 6.3 µg/mL (≈ 19.1 µM); MIC (Pichia kudriavzevii): 0.4 µg/mL (≈ 1.21 µM); MIC (Candida albicans): 3.2 µg/mL (≈ 9.69 µM); MIC (Candida tropicalis): 0.8 µg/mL (≈ 2.42 µM)

Q: `O=C1C(Cl)=C(Nc2ccc(Cl)cc2)C(=O)c2[nH]c(-c3ccccn3)nc21` was tested. Which MIC (Aspergillus niger) did it give?
A: 6.3 µg/mL (≈ 16.4 µM)

Q: And the MIC (Pichia kudriavzevii)?
A: 6.3 µg/mL (≈ 16.4 µM)

Q: What about the MIC (Candida albicans) of the same compound?
A: 6.3 µg/mL (≈ 16.4 µM)

Q: And the MIC (Candida tropicalis)?
A: 3.2 µg/mL (≈ 8.31 µM)

Q: For `COc1ccc(NC2=CC(=O)c3[nH]c(-c4ccccn4)nc3C2=O)cc1`, which MIC (Aspergillus niger) is on record?
A: 50 µg/mL (≈ 144 µM)

Q: What about the MIC (Pichia kudriavzevii) of the same compound?
A: 1.6 µg/mL (≈ 4.62 µM)

Q: What about the MIC (Candida albicans) of the same compound?
A: 6.3 µg/mL (≈ 18.2 µM)

Q: What about the MIC (Candida tropicalis) of the same compound?
A: 0.8 µg/mL (≈ 2.31 µM)

Q: Which MIC (Aspergillus niger) does the source give for `O=C1C(Nc2ccc(F)cc2)=CC(=O)c2[nH]c(-c3ccccn3)nc21` here?
A: 100 µg/mL (≈ 299 µM)

Q: What about the MIC (Pichia kudriavzevii) of the same compound?
A: 50 µg/mL (≈ 150 µM)

Q: And the MIC (Candida albicans)?
A: 100 µg/mL (≈ 299 µM)

Q: And the MIC (Candida tropicalis)?
A: 1.6 µg/mL (≈ 4.79 µM)

Q: How did the MIC (Aspergillus niger) turn out when `CCOc1ccc(NC2=CC(=O)c3nc(-c4ccccn4)[nH]c3C2=O)cc1` was run?
A: 50 µg/mL (≈ 139 µM)

Q: And the MIC (Pichia kudriavzevii)?
A: 1.6 µg/mL (≈ 4.44 µM)

Q: And the MIC (Candida albicans)?
A: 50 µg/mL (≈ 139 µM)

Q: What about the MIC (Candida tropicalis) of the same compound?
A: 0.8 µg/mL (≈ 2.22 µM)

Q: Which results are given for `O=C1C(Cl)=C(Nc2ccc(I)cc2)C(=O)c2[nH]c(-c3ccccn3)nc21`?
A: MIC (Aspergillus niger): > 100 µg/mL; MIC (Pichia kudriavzevii): 100 µg/mL (≈ 210 µM); MIC (Candida albicans): 50 µg/mL (≈ 105 µM); MIC (Candida tropicalis): 3.2 µg/mL (≈ 6.71 µM)

Q: Which MIC (Aspergillus niger) does the source give for `O=C1C(Cl)=C(Nc2ccc(Cl)cc2)C(=O)c2[nH]c(-c3ccncc3)nc21` here?
A: 100 µg/mL (≈ 260 µM)

Q: And the MIC (Pichia kudriavzevii)?
A: > 100 µg/mL

Q: What about the MIC (Candida albicans) of the same compound?
A: > 100 µg/mL

Q: What about the MIC (Candida tropicalis) of the same compound?
A: 3.2 µg/mL (≈ 8.31 µM)

Q: For `Nc1nc(=O)[nH]cc1F` [FLUCYTOSINE], which MIC (Aspergillus niger) is on record?
A: 6.3 µg/mL (≈ 48.8 µM)

Q: What about the MIC (Pichia kudriavzevii) of the same compound?
A: 6.3 µg/mL (≈ 48.8 µM)

Q: And the MIC (Candida albicans)?
A: 3.2 µg/mL (≈ 24.8 µM)

Q: What about the MIC (Candida tropicalis) of the same compound?
A: 6.3 µg/mL (≈ 48.8 µM)
